Marks after values point to notes of the source that are not given here.
Test: High dosages of IRPs in mice (weight, histology)
Type: in vivo, BALB/c mice
Details: ISS control (5 mg/kg)
Procedure: To test the activity of IRPs at high dosages in mice, IRPs or a control (saline) were subcutaneously administered to BALB/c mice at a dosage of 4 mg/kg, 20 mg/kg, 50 mg/kg, or 100 mg/kg on days 1, 4, 7, and 10 (n=5 per group). Mice were weighed prior to administration and on days 2, 4, 7, 9, and 11. Serum cytokines were assayed at two hours post the first and third injections and 24 hours post the fourth injection. Organs were harvested at the end of the study, and organ weights and tissues levels of the oligonucleotides were determined. In addition, histological evaluation of the liver, kidney, and heart was performed.
Mice were weighed prior to administration and on days 1, 3, 4, 6, 7, and 9. Organs were harvested at the end of the study, and organ weights and tissues levels of the oligonucleotides were determined. In addition, histological evaluation of the liver, kidney, and heart was performed.

5′-TGACTGTGAACGTTCGAGATGA-3′ [SEQ ID NO:157, reference compound]
Heart: Chronic inflammation, number of animals: 2 | Heart: Mineralization, number of animals: 1 | Heart: Chronic inflammation, mean severity score (0 = no change to 4 = severe): 2.0 | Heart: Mineralization, mean severity score (0 = no change to 4 = severe): 4.0 | Liver: Liver changes, mean severity score (0 = no change to 4 = severe): 2.0 | Liver: Mixed cell infiltration, mean severity score (0 = no change to 4 = severe): 3.0 | Right Kidney: Tubular basophilia, mean severity score (0 = no change to 4 = severe): 2.0 | Liver: Liver changes, number of animals (6 animals): 6 | Liver: Mixed cell infiltration, number of animals (6 animals): 6 | Liver: No significan changes, number of animals (6 animals): 0 | Right Kidney: No significant changes, number of animals (6 animals): 5 | Right Kidney: Tubular basophilia, number of animals (6 animals): 1 | Right Kidney: Tubular changes, number of animals (6 animals): 0 | Heart: No significant changes, number of animals (tissue missing in two animals): 1**

Reference: patent US8940310B2, “Methods of treatment using TLR7 and/or TLR9 inhibitors” (Dynavax Technologies Corporation, priority 2010, dated 2015)
